Measured values published in publication PMC8227885 (Viruses, 2021).

Test system: RBD
Type: binding, SARS-CoV-2

Substance | biosensor activity with RBD-Lg, ACE2 deletions and mutants
Sm-ACE2-18–415 | reduced biosensor activity
Sm-ACE2-18-515 | significantly lower than that of Sm-ACE2-18-615/RBD-Lg
ACE2 K31 | significantly reduced biosensor activity
K353A | almost abolished biosensor activity
